Assay results reported in US11147295B2, “Sweetener and flavor compositions, methods of making and methods of use thereof” (EPC Natural Products Co., Ltd., priority 2018, dated 2021).

Tests used:
[1] = the sweeteness depends on the tested concentration compared with sucrose; cited from earlier work
[2] = Sensory analysis of Maillard reaction samples: odor/smell, color, taste (Examples 55-62); type: in vivo, human; conditions: Example 56, negative controls (no carbohydrate source); 10 ml glycerin/water=9:1, 100° C., 40 minutes
Procedure: All reactions were performed in 10 ml glycerin/water=9:1. The reaction partners were dissolved in water and then warmed glycerin (60° C.) was added. The reactions were performed at 100° C. for 40 minutes in a drying oven (sealed vials were positioned in pre-heated sand to increase heat transfer).
All samples were assessed at 22° C. after the Maillard reaction was stopped by placing the sealed vials in an ice bath. After 20 minutes in the ice bath the sealed vials were put in a water bath set to 22° C.
The odor/smell was assessed independently by 3 persons; the final description was agreed after discussion. […] The taste was assessed independently by 3 persons either in the original samples or after appropriate dilution to achieve relevant concentrations of sugars and steviol-glycosides (i.e. 5-9% SE); the final description was agreed after discussion.

[3] = Sensory evaluation of the samples prepared in Example 50 (Example 52); type: in vivo, human; parameters: key to Intensity of Smell: “+” for slight; “++” for moderate; “+++” for very strong
Procedure: The reaction partner (amino acid, carbohydrate source) were dissolved/suspended in the reaction solvent and transferred into a glass beaker filled with sand pre-heated for at least 30 minutes at the reaction temperature in a drying oven. After the planned reaction time, the vials were transferred into ice water. After cooling to room temperature, sensory analysis and analytical characterization was performed.
For evaluation of the taste profile, the samples were tested by a panel of four people. 1 trained taster tasted independently the samples first. The taster was asked to describe the taste profile and score 0-5 according to the increasing sugar likeness, bitterness, aftertaste and lingering taste profiles. The first taster was allowed to re-taste, and then make notes for the sensory attributes perceived. Afterwards, another 3 tasters tasted and the attributes were noted and discussed openly to find a suitable description. In case that more than 1 taster disagreed with the results, the tasting was repeated. In some sensory test results (above), the taste rating was expressed by “+”, which means the intensity of the factors is shown by three levels. “+” for slight, “++” for moderate and “+++” for very strong.

[4] = Sensory analysis of Maillard reaction samples: odor/smell, color, taste (Examples 55-62); type: in vivo, human
[5] = DPPH radical-scavenging activity (Example 65); type: physicochemical; conditions: iron-III reduction and DPPH radical scavenging, samples kept at 100° C. 0, 2.5 or 5.0 hours
Procedure: 1 mg 1,1-Diphenyl-2-picrylhydrazyl radical (DPPH)/ml ethanol, dilution to assay concentration were prepared in ethanol (40 μg/mL); Calibration samples were prepared with Ascorbic acid in a concentration of 0-10 μg/mL; as a negative control sample, water was used.
Samples in aqueous solution were used as such or diluted with water.
A 0.1 ml sample (or calibration standard) was mixed with 3.9 ml solution of DPPH (100 μMolar) and reacted while protected from light at room temperature for 30 min. Absorbance was determined at 517 nm against ethanol.
10 mM of amino acid and/or 10 mM sugar were dissolved in 10 ml 0.1 mM KH2PO4-buffer, pH=7.8.
The samples were kept at 100° C. in sealed glass vials (Pyrex 15 ml with screw caps) for 0 (before reaction), 2.5 or 5.0 hours. Thereafter the samples were transferred to an ice water bath and cooled down to room temperature. These samples were diluted 1:10 and used for the test assay for anti-oxidant potential.

[6] = Table 52.5, 1 ml water + 9 ml Glycerin, 2.0 h, 120° C. (Table 50.5)
[7] = Example 57, after reaction, 10 ml KH2PO4, pH 7.8, 2.5 h, 120° C.
[8] = Table 52.1, 1 ml water + 9 ml Glycerin, 1 h, 100° C. (Table 50.1)
[9] = Table 52.6, Glycerin, 10 ml, 100° C., 40 min (Table 50.6)
[10] = Table 52.7, Glycerin, 10 ml, 1 h, 120° C. (Table 50.7)
[11] = Table 52.2, 1 ml water + 9 ml Glycerin, 0.67 h, 100° C. (Table 50.2)
[12] = Example 57, before reaction, 10 ml KH2PO4, pH 7.8
[13] = Table 52.3, 1 ml water + 9 ml Glycerin, 0.67 h, 100° C. (Table 50.3)

OC[C@H]1O[C@H](O[C@]2(CCl)O[C@H](CCl)[C@@H](O)[C@@H]2O)[C@H](O)[C@@H](O)[C@H]1Cl [sucralose]
times sweeter than sucrose [1]: about 600 times

N[C@@H](Cc1ccc(O)cc1)C(=O)O [18.1 mg Tyr]
Smell [2]: neutral
Taste [2]: Slightly sweet

O=C[C@H](O)[C@H]1OC(=O)[C@@H](O)[C@H]1O [0.1 mMol GlucLac]
Intensity of Smell [3, 6]: +++
Smell [3, 6]: Burnt sugar
Taste [3, 6]: Bitter

O=C1O[C@@H]2[C@@H](O)[C@H](O)O[C@@H]2C1O (stereo partly shown) [Glucuronolactone]
Smell [4, 7]: Burnt sugar
Taste [4, 7]: Bitter

O=C[C@H](O)[C@@H](O)[C@H](O)[C@H](O)C(=O)O [Glucuronic Acid]
Smell [4, 7]: burnt bread
Taste [4, 7]: Bitter

N[C@@H](Cc1ccccc1)C(=O)O [Phe 60 mMol]
Smell [3, 8]: flowery/bloomy-caramel
Taste [3, 8]: Sweet

N[C@@H](Cc1ccccc1)C(=O)O [3.3 mMol Phe]
Smell ([3]; Table 52.6, Glycerin, 10 ml, 100° C., 5 min (Table 50.6)): Slightly bloomy
Smell ([3]; Table 52.6, Glycerin, 10 ml, 100° C., 10 min (Table 50.6)): flowery/bloomy
Smell ([3]; Table 52.6, Glycerin, 10 ml, 100° C., 20 min (Table 50.6)): flowery/bloomy
Smell [3, 9]: flowery/bloomy
Smell [3, 10]: flowery/bloomy

C=C1C[C@@]23CC[C@H]4[C@@](C)(CCC[C@@]4(C)C(=O)O[C@@H]4O[C@H](CO)[C@@H](O)[C@H](O)[C@H]4O)[C@@H]2CC[C@]1(O[C@@H]1O[C@H](CO)[C@@H](O)[C@H](O[C@@H]2O[C@H](CO)[C@@H](O)[C@H](O)[C@H]2O)[C@H]1O[C@@H]1O[C@H](CO)[C@@H](O)[C@H](O)[C@H]1O)C3 [0.05 mMol Reb-A]
Smell [3, 11]: neutral/unpleasant
Taste [3, 11]: sweet

N[C@@H](CS)C(=O)O [12.1 mg Cys]
Smell [2]: Unpleasant (sulfur)
Taste [2]: Slightly sweet

CC[C@H](C)[C@H](N)C(=O)O [13.11 mg Ile]
Smell [2]: Coffee
Taste [2]: Slightly sweet

C[C@H](N)C(=O)O [8.91 mg Ala]
Smell [2]: Neutral, slightly Agar
Taste [2]: Slightly sweet

N[C@@H](CO)C(=O)O [10.5 mg Ser]
Smell [2]: Lotus flower
Taste [2]: Slightly sweet

C=C1C[C@@]23CC[C@H]4[C@@](C)(CCC[C@@]4(C)C(=O)O[C@@H]4O[C@H](CO)[C@@H](O)[C@H](O)[C@H]4O)[C@@H]2CC[C@]1(O[C@@H]1O[C@H](CO)[C@@H](O)[C@H](O[C@@H]2O[C@H](CO)[C@@H](O)[C@H](O)[C@H]2O)[C@H]1O[C@@H]1O[C@H](CO)[C@@H](O)[C@H](O)[C@H]1O)C3 [Reb-A, Rebaudioside A]
anti-oxidant properties [5]: substantial anti-oxidant properties

OC[C@H]1OC(O)[C@H](O)[C@@H](O)[C@@H]1O (stereo partly shown) [10 mMol Glu]
Smell [3, 9]: Slightly Caramel
Smell [3, 10]: Slightly Caramel

NCCCC[C@H](N)C(=O)O [14.7 mg Lys]
Smell [2]: Popcorn
Taste [2]: Slightly sweet

O=C(O)[C@@H]1CCCN1 [11.5 mg Pro]
Taste [2]: Slightly sweet

N[C@@H](Cc1ccccc1)C(=O)O [16.5 mg Phe]
Smell [2]: Bloomy, caramel
Taste [2]: Slightly sweet
Smell [4, 12]: neutral
Taste [4, 12]: No taste
Smell ([4]; Example 58, before reaction, 10 ml KH2PO4, pH 7.8): Neutral
Taste ([4]; Example 58, before reaction, after dilution 1:20): No taste

C[C@@H](O)[C@H](N)C(=O)O [11.91 mg Thr]
Smell [2]: Vanilla, butter
Taste [2]: Slightly sweet

N[C@H](Cc1ccccc1)C(=O)O [Phe]
Smell [4, 7]: Caramel, burnt
Taste [4, 7]: sweet

OC[C@H]1OC(O)[C@H](O)[C@@H](O)[C@@H]1O (stereo partly shown) [9 mg Glucose]
Smell [4, 12]: neutral
Taste [4, 12]: Sweet

NCCCC[C@H](N)C(=O)O [0.1 mMol Lys]
Smell [3, 13]: Popcorn
Taste [3, 13]: Sweet

N[C@@H](Cc1c[nH]c2ccccc12)C(=O)O [20.42 mg Try]
Smell [2]: Unpleasant (fecal)
Taste [2]: Slightly sweet

CSCC[C@H](N)C(=O)O [14.9 mg Met]
Smell [2]: Sulfuric
Taste [2]: Slightly sweet

N[C@@H](Cc1ccccc1)C(=O)O [0.1 mMol Phe]
Taste [3, 11]: sweet
Intensity of Smell [3, 6]: +
Smell [3, 6]: Caramel, burnt
Taste [3, 6]: sweet

N[C@@H](CCC(=O)O)C(=O)O [167 mMol Glu]
Smell [3, 8]: caramel
Taste [3, 8]: Sweet

Thaumatin
times sweeter than sucrose [1]: about 2000 times

O=S(=O)([O-])NC1CCCCC1.[Na+] [sodium cyclamate]
times sweeter than sucrose [1]: about 30 times

C[C@H](N)C(=O)O [0.1 mMol Ala]
Smell [3, 11]: Agar
Taste [3, 11]: sweet
